Results: publication PMC8869358, “High-Throughput Chemical Screening and Structure-Based Models to Predict hERG Inhibition” (Biology, 2022)
Counter-ions that a name gives are not always drawn.

Biological target: hERG (Homo sapiens, UniProt Q12809)
Test: cell-based
Settings: (-LOG10(IC50), µM)

Sequence of hERG (Q12809 whole entry): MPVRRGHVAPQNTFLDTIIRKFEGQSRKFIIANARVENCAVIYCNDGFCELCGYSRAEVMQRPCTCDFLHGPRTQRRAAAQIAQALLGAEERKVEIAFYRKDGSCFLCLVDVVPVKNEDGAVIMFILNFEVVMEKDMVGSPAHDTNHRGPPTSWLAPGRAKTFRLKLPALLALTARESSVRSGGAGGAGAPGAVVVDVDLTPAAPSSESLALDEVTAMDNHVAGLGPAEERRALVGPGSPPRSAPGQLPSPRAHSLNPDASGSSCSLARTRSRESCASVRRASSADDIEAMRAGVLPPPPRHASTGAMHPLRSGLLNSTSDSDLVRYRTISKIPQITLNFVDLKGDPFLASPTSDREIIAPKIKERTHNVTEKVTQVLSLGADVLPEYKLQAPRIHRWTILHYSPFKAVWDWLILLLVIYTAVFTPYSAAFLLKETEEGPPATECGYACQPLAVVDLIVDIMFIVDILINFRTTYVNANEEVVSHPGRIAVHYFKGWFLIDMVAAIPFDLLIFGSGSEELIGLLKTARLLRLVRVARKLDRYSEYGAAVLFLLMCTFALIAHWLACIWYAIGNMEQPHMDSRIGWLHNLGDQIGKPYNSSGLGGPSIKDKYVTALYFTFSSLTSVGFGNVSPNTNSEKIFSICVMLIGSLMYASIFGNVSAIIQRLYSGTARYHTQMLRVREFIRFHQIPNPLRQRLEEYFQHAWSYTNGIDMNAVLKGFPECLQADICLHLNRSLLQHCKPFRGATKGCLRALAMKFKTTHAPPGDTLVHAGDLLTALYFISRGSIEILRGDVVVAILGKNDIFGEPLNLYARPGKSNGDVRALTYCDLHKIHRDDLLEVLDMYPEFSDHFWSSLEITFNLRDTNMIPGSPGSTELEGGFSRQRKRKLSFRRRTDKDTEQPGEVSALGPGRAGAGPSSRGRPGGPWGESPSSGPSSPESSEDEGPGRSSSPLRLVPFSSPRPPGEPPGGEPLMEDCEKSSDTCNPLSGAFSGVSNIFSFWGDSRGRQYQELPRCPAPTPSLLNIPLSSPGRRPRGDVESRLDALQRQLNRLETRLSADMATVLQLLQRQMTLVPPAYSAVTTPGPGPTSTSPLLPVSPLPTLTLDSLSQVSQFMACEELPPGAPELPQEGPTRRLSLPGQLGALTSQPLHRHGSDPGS

SMILES | IC50 [µM]
CCCC[n+]1ccc(C)cc1 [1-Butyl-4-methylpyridinium chloride] | 43.4
COc1ccc2cc1Oc1ccc(cc1)C[C@H]1c3c(cc4c(c3Oc3cc5c(cc3OC)CCN(C)[C@@H]5C2)OCO4)CCN1C [Cepharanthine] | 10.3
Clc1cnc(Oc2ccc(Oc3ncc(Cl)cc3Cl)cc2)c(Cl)c1 [1,4-Bis[2-(3,5-dichloropyridyloxy)]benzene] | 17.4
C[C@H]1CCC[C@H](O)CCCCCc2cc(O)cc(O)c2C(=O)O1 [Zearalanol] | 55.4
Cc1ccccc1OP(=O)(Oc1ccccc1C)Oc1ccccc1C [Tri-o-cresyl phosphate] | 21.1
CCOCCn1c(C2CCN(CCc3ccc(C(C)(C)C(=O)O)cc3)CC2)nc2ccccc21 [Bilastine] | 10.1
CCC(COC(=O)CCS)(COC(=O)CCS)COC(=O)CCS [2,2-Bis{[(3-sulfanylpropanoyl)oxy]methyl}butyl 3-sulfanylpropanoate] | 38.9
CC(C(O)c1ccccc1)N(C)CCOC(c1ccccc1)c1ccccc1 (stereo not drawn) [Difeterol] | 1.83
Oc1cc(Cl)ccc1Oc1ccc(Cl)cc1Cl [Triclosan] | 45.2
Cc1cc(CCN2CCN(c3nsc4ccccc34)CC2)cc2c1NC(=O)CC2(C)C [PD 0343701] | 16.1
CS/C(C)=N/OC(=O)N(C)SN(C)C(=O)O/N=C(\C)SC [Thiodicarb] | 43.6
CN1[C@@H]2CC[C@H]1C[C@@H](NC(=O)n1c(=O)[nH]c3ccccc31)C2 [Itasetron] | 21.3
Cc1cc(C(C)(C)c2ccc(O)c(C)c2)ccc1O [3,3'-Dimethylbisphenol A] | 41.6
C[C@@H]1CC(=O)NN=C1c1ccc(NN=C(C#N)C#N)cc1 [Levosimendan] | 5.67
O=C(CCCN1CCC(n2c(O)nc3ccccc32)CC1)c1ccc(F)cc1 [Benperidol] | 1.76
CC(C)=CCCC(C)=CCCC(C)=CCO [Farnesol] | 47.1
C/C=C\C/C=C/CCCCCCCCOC(C)=O [(E,Z)-Tetradeca-9,12-dienyl acetate] | 36.7
CCCCCCCCCCOCC(O)CN (stereo not drawn) [Decominol hydrochloride] | 20.5
CC(Cc1ccccc1)NCCCCl (stereo not drawn) [Mefenorex] | 16.3
CCCCCC[n+]1ccn(C)c1.O=S(=O)([N-]S(=O)(=O)C(F)(F)F)C(F)(F)F [1-Hexyl-3-methylimidazolium bis(trifluoromethylsulfonyl)imide] | 45.4
Cc1cc2c(OCC(CNC(C)(C)C)OC(=O)c3ccccc3)cccc2[nH]1 (stereo not drawn) [Bopindolol] | 21.3
CCN1CCN(c2cc(-c3ccc(F)cc3)c3c(n2)CCCCCC3)CC1 [Blonanserin] | 3.99
COc1ccc(C(c2ccc(OC)cc2)C(Cl)(Cl)Cl)cc1 [Methoxychlor] | 20.5
CC(C)CCOC(=O)C=Cc1ccccc1 [Isoamyl cinnamate] | 39.1
CCC(Cc1ccccc1)(C(=O)c1ccc(N2CCOCC2)cc1)N(C)C (stereo not drawn) [2-Benzyl-2-(dimethylamino)-1-[4-(morpholin-4-yl)phenyl]butan-1-one] | 19.5
CCCCCCCCCCCCc1ccc(O)cc1 [4-Dodecylphenol] | 19.5

SMILES | IC50 [µM]
Cn1cc(C(=O)[C@@H]2CCc3nc[nH]c3C2)c2ccccc21 [Ramosetron hydrochloride] | 20.5
CCCCCCOC(=O)NC(=N)c1ccc(NCc2nc3cc(C(=O)N(CCC(=O)OCC)c4ccccn4)ccc3n2C)cc1 [Dabigatran etexilate] | 0.515
COc1cccc(-c2ccc(/C=C\CN3CCCCCC3)cc2Cl)c1 [SR125047] | 1.48
CCCCOc1ccc(C(=O)CCN2CCCCC2)cc1 [Dyclonine hydrochloride] | 20.1
CCCCCCCCCCCC[N+](C)(C)C [Dodecyltrimethylammonium bromide] | 21
CN1C[C@H](C(=O)N[C@]2(C)O[C@@]3(O)[C@@H]4CCCN4C(=O)[C@H](Cc4ccccc4)N3C2=O)C[C@@H]2c3cccc4[nH]cc(c34)C[C@H]21 [Dihydroergotamine] | 19
CC(C)C1CCC(Cc2ccc(Cl)cc2)C1(O)Cn1cncn1 (stereo not drawn) [Ipconazole] | 34.3
CCn1c2ccccc2c2cc([N+](=O)[O-])ccc21 [9-Ethyl-3-nitro-9H-carbazole] | 28.6
CN1CCN(Cc2cc(-c3ccc4[nH]c(=O)oc4c3)co2)[C@@H](c2ccc(F)cc2)C1 [AVE8488] | 37.4
COc1cc2c(cc1OC)C(C(C(=O)N(CCc1ccc(OC)c(OC)c1OC)CCc1ccc(OC)c(OC)c1OC)c1ccccc1)=NCC2 (stereo not drawn) [Pinokalant hydrochloride] | 20.1
CC(Cc1cccc(C(F)(F)F)c1)NCCOC(=O)c1ccccc1 (stereo not drawn) [Benfluorex hydrochloride] | 9.52
CCCCCCCCCCCCCCCCCC[n+]1ccn(C)c1 [1-Methyl-3-octadecylimidazolium hexafluorophosphate] | 4.02
CCCC[P+](CCCC)(CCCC)CCCC [Tetrabutylphosphonium chloride] | 23.2
CC(C)COC(=O)COc1cc(Cl)c(Cl)cc1Cl [Isobutyl (2,4,5-trichlorophenoxy)acetate] | 41.1
CSc1ccc2c(c1)C(N1CCN(C)CC1)Cc1ccccc1S2 (stereo not drawn) [Metitepine] | 1.15
CN(C)CCN(Cc1ccccc1)c1ccccn1 [Tripelennamine citrate] | 12.7
O=C1c2ccccc2S(=O)(=O)N1CCCCN1CCN(c2ncccn2)CC1 [Ipsapirone] | 16.9
O=C(NC1CCN(CCc2c[nH]c3ccccc23)CC1)c1ccccc1 [Indoramin hydrochloride] | 4.42
CC(=O)c1ccc2c(c1)N(CCCN1CCC(CCO)CC1)c1ccccc1S2 [Piperacetazine] | 2.39
CCC(=O)O[C@H]1CC[C@H]2[C@@H]3CCC4=CC(=O)CC[C@]4(C)[C@H]3CC[C@]12C [Testosterone propionate] | 25.8
CN(C/C=C/C#CC(C)(C)C)Cc1cccc2ccccc12 [Terbinafine] | 9.52
C[C@@H]1CC[C@@]2(OC1)O[C@H]1[C@@H](O)[C@H]3[C@@H]4CC[C@H]5C[C@@H](O[C@@H]6O[C@H](CO)[C@H](O[C@@H]7O[C@H](CO)[C@@H](O)[C@H](O[C@@H]8OC[C@@H](O)[C@H](O)[C@H]8O)[C@H]7O[C@@H]7O[C@H](CO)[C@@H](O)[C@H](O[C@@H]8O[C@H](CO)[C@@H](O)[C@H](O)[C@H]8O)[C@H]7O)[C@H](O)[C@H]6O)[C@H](O)C[C@]5(C)[C@H]4CC[C@]3(C)[C@H]1[C@@H]2C [Digitonin] | 8.9
OC1(c2ccc(Cl)c(C(F)(F)F)c2)CCN(CCCC(c2ccc(F)cc2)c2ccc(F)cc2)CC1 [Penfluridol] | 0.239
O=S(=O)(Oc1ccc(Cl)cc1Cl)c1ccccc1 [2,4-Dichlorophenyl benzenesulfonate] | 51.8
O=C(c1ccc(F)cc1)C1CCN(CCn2c(=O)[nH]c3ccccc3c2=O)CC1 [Ketanserin] | 2.68
O=C1c2ccccc2C(=O)N1CCc1noc(-c2ccc(CN3CCCCCC3)s2)n1 [PharmaGSID_48172] | 23.4

SMILES | IC50 [µM]
O=C1C=CC(=O)N1c1ccccc1 [1-Phenyl-1H-pyrrole-2,5-dione] | 50.9
CC(C)(COC(=O)c1ccccc1)COC(=O)c1ccccc1 [Neopentyl glycol dibenzoate] | 13.8
CC(C)C(=O)OCc1cccc(OC(=O)[C@@H]2N3C(=O)[C@@H](NC(=O)Cc4ccccc4)[C@H]3SC2(C)C)c1 [Tobicillin] | 20.5
CCCCCCCCCCCCCCCCCC[N+](C)(C)Cc1ccccc1 [N,N-Dimethyl-N-benzyl-N-octadecylammonium chloride] | 4.41
Clc1ccc(C(c2ccc(Cl)cc2)C(Cl)Cl)cc1 [p,p'-DDD] | 25.5
CCCN(CCC)C(=O)CN [C.I. Solvent Black 5] | 9.21
COc1ccc(-c2cc(C(F)F)nn2-c2ccc(S(N)(=O)=O)cc2)cc1F [Deracoxib] | 23.9
CCCCCCCCCCCCCC[P+](CCCCCC)(CCCCCC)CCCCCC [Trihexyltetradecylphosphonium hexafluorophosphate] | 0.47
CCN(CC)CCOC(=O)C(c1ccccc1)C1CCCCC1 (stereo not drawn) [Drofenine hydrochloride] | 7.86
Nc1ccc(Oc2ccc(Cl)cc2)cc1 [4-Chloro-4'-aminodiphenyl ether] | 41.1
ClC(Cl)(Cl)c1ccc(C(Cl)(Cl)Cl)cc1 [1,4-Bis(trichloromethyl)benzene] | 14.2
CCCCCCCCCCCCCCNCCO [Myralact] | 12.5
ClC1=C(Cl)[C@]2(Cl)[C@H]3[C@H]([C@@H]4C=C[C@H]3C4)[C@@]1(Cl)C2(Cl)Cl [Aldrin] | 23.6
CC(C(O)c1ccccc1)N(C)C/C=C/c1ccccc1 (stereo not drawn) [Cinnamedrine] | 12
CCOC(=O)C(C)Oc1ccc(Oc2cnc3cc(Cl)ccc3n2)cc1 (stereo not drawn) [Quizalofop-ethyl] | 17.1
CCCCC(CC)CN1C(=O)C2C3C=CC(C3)C2C1=O (stereo not drawn) [Octylbicycloheptenedicarboximide] | 49
CC(CC(C#N)(c1ccccc1)c1ccccc1)N(C)C (stereo not drawn) [4-Dimethylamino-2,2-diphenylvaleronitrile] | 29.6
O=C1NC2CCCCN2C12CCN(CCCN1c3ccccc3CCc3ccc(Cl)cc31)CC2 (stereo not drawn) [Mosapramine] | 0.882
CN(C)S(=O)(=O)N(SC(F)(Cl)Cl)c1ccccc1 [Dichlofluanid] | 17.4
COC(=O)[C@H]1[C@H]2C[C@@H]3c4[nH]c5cc(OC)ccc5c4CCN3C[C@H]2C[C@@H](OC(=O)/C=C/c2ccc(O)c(OC)c2)[C@@H]1OC [Rescimetol] | 1.57
O=C(N[C@H](c1ccccc1)[C@@H]1CN2CCC1CC2)c1c(Cl)ccc(C(F)(F)F)c1Cl [SSR 103800] | 30.2
O=C1NCN(c2ccccc2)C12CCN(CCCOc1ccc(F)cc1)CC2 [AMI-193] | 0.786
O=C1OC2(c3ccc(O)cc3Oc3cc(O)ccc32)c2ccccc21 [Fluorescein] | 21.9
ClC1=C(Cl)[C@]2(Cl)[C@@H]3[C@@H](Cl)[C@H]4O[C@H]4[C@@H]3C1(Cl)C2(Cl)Cl [Heptachlor epoxide B] | 38.9
CCCCC/C=C\C/C=C\CCCCCCCC(=O)NC(C)c1ccccc1 (stereo not drawn) [Melinamide] | 21.3
Cc1cc(Cc2cc(C)cc(C(C)(C)C)c2O)c(O)c(C(C)(C)C)c1 [2,2'-Methylenebis(4-methyl-6-tert-butylphenol)] | 31.1
